One experiment addresses PCSK9/LDLR PPI (Homo sapiens, UniProt Q8NBP7). The experiment in a line: PCSK9-LDLR TR-FRET assay (PCSK9/LDLR PPI inhibitory screening). The note with it: for inhibition at 10 µM: mean of three experiments, read-out: PCSK9 percentage inhibitory rate. In kind it is binding. As for the experimental part:
The PCSK9/LDLR time-resolved fluorescence resonance energy transfer (TR-FRET) assay was performed to evaluate the activity of synthesised compounds in inhibition of PCSK9-LDLR binding. The A series compounds were firstly synthesised for the PCSK9/LDLR PPI inhibitory test. […] Therefore, a group of A12 derivatives (B series) were synthesised with 4-chlorobenzyl substituted in the amino group and various substitutions introduced to the carboxylic group. […] To confirm whether the 4-chloromethyl group is essential for the PPI inhibitory activity, a new series of compounds (C series) were synthesised with the 4-chloromethyl group replaced by 4-methoxymethyl moiety. The inhibitory activity was observed, most likely resulting from the 4-methoxymethyl substitution (Table 3).
The compounds were dissolved in 100% DMSO; then 2 µL of the dilution was added to a 20 µL of reaction to keep […] in all of reactions. The binding reaction was conducted at room temperature. The reaction mixture in assay buffer contains PCSK9, the indicated amount of the inhibitor, ligand LDLR, and the reaction dyes. The reaction mixture was incubated for 120 min before detection of the TR-FRET signal. Fluorescence signals for both the donor and acceptor dyes were measured using a Tecan Infinite M1000 plate reader. TR-FRET was recorded as the ratio of the fluorescence of the acceptor and the donor dyes (acceptor/donor). The TR-FRET data were analysed using Graphpad Prism software.
(Time-resolved FRET reads energy transfer from a long-lived donor to a nearby acceptor.)

Another experiment relates to HepG2 cells. The experiment in a line: MTT assay on HepG2 cells. It counts as cell-based. Particulars: Homo sapiens, mean of three experiments, read-out: HepG2 percentage inhibitory rate. Background: Formazan colour is commonly taken as a measure of viable cells.

Chain of PCSK9/LDLR PPI (Q8NBP7 153-692): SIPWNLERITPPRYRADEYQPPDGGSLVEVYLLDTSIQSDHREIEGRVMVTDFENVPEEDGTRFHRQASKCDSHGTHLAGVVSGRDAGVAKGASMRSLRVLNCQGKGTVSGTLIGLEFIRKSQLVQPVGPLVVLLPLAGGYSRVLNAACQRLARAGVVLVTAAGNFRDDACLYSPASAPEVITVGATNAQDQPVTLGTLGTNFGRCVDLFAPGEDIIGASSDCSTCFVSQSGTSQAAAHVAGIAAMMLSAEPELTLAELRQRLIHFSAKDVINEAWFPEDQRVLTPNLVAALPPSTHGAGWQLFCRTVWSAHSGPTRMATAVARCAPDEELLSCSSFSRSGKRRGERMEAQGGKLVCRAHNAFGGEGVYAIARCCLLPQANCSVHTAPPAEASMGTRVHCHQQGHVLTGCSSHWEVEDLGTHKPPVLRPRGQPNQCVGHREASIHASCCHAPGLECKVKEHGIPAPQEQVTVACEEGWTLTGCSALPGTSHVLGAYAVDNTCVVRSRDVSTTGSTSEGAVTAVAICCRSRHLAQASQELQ
Chain of PCSK9/LDLR PPI (Q8NBP7 31-152 partner limits assumed): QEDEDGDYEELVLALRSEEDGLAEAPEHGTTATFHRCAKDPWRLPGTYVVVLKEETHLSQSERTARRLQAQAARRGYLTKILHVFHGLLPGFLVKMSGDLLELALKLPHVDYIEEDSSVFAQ

`COc1ccccc1C(=O)Nc1cc2c(cc1-c1ccc(C(=O)Nc3cc(OC)c(OC)c(OC)c3)cc1)OCO2` [A10, 2-Methoxy-N-(6-(4-((3,4,5-trimethoxyphenyl)carbamoyl)phenyl)benzo[d][1,3]dioxol-5-yl)benzamide]: the inhibition at 10 µM on PCSK9/LDLR PPI came to 3.05 ± 0.05%; in the experiment on HepG2 cells, 4.27 ± 0.16%.

Consider `COc1ccc(C(=O)Nc2cc3c(cc2-c2ccc(C(=O)Nc4cc(OC)c(OC)c(OC)c4)cc2)OCO3)cc1` [A6, 4-Methoxy-N-(6-(4-((3,4,5-trimethoxyphenyl)carbamoyl)phenyl)benzo[d][1,3]dioxol-5-yl)benzamide], for which the inhibition at 10 µM at PCSK9/LDLR PPI amounted to 5.92 ± 0.52%; in the experiment on HepG2 cells it was 5.9 ± 0.42%.

Take `COCc1ccc(C(=O)Nc2cc3c(cc2-c2ccc(C(=O)N4CCN(c5ccccc5)CC4)cc2)OCO3)cc1` [C6, 4-(Methoxymethyl)-N-(6-(4-(4-phenylpiperazine-1-carbonyl)phenyl)benzo[d][1,3]dioxol-5-yl)benzamide]: the values for the inhibition at 10 µM on PCSK9/LDLR PPI and in the experiment with HepG2 cells were 3.39 ± 1.67% and 6.15 ± 0.26%, respectively.

With `COc1cc(NC(=O)c2ccc(-c3cc4c(cc3NC(=O)c3cccc(F)c3)OCO4)cc2)cc(OC)c1OC` [A9, 3-Fluoro-N-(6-(4-((3,4,5-trimethoxyphenyl)carbamoyl)phenyl)benzo[d][1,3]dioxol-5-yl)benzamide], the inhibition at 10 µM at PCSK9/LDLR PPI was determined as 22.5 ± 1.36%; in the experiment on HepG2 cells, 11.7 ± 0.88%.

In the case of `COc1cc(NC(=O)c2ccc(-c3cc4c(cc3NC(=O)c3ccc(F)cc3)OCO4)cc2)cc(OC)c1OC` [A1, 4-Fluoro-N-(6-(4-((3,4,5-trimethoxyphenyl)carbamoyl)phenyl)benzo[d][1,3]dioxol-5-yl)benzamide], the inhibition at 10 µM was 27.2 ± 1.85% on PCSK9/LDLR PPI and 12.5 ± 1.06% in the experiment with HepG2 cells.

As for `COc1cc(NC(=O)c2ccc(-c3cc4c(cc3NC(=O)c3ccccc3C)OCO4)cc2)cc(OC)c1OC` [A13, 2-Methyl-N-(6-(4-((3,4,5-trimethoxyphenyl)carbamoyl)phenyl)benzo[d][1,3]dioxol-5-yl)benzamide], the inhibition at 10 µM was 7.65 ± 0.01% on PCSK9/LDLR PPI and 5.89 ± 0.27% with HepG2 cells.

Consider `COCc1ccc(C(=O)Nc2cc3c(cc2-c2ccc(C(=O)N4CCN(c5ccccc5OC)CC4)cc2)OCO3)cc1` [C4, 4-(Methoxymethyl)-N-(6-(4-(4-(2-methoxyphenyl)piperazine-1-carbonyl)phenyl)benzo[d][1,3]dioxol-5-yl)benzamide], for which the inhibition at 10 µM came to 7.55 ± 0.71% at PCSK9/LDLR PPI and 6.77 ± 0.62% with HepG2 cells.

On to `Cc1ccc(NC(=O)c2ccc(-c3cc4c(cc3NC(=O)c3ccc(CCl)cc3)OCO4)cc2)cc1` [B8, 4-(Chloromethyl)-N-(6-(4-(p-tolylcarbamoyl)phenyl)benzo[d][1,3]dioxol-5-yl)benzamide], for which the inhibition at 10 µM on PCSK9/LDLR PPI is 3.15 ± 0.02%; in the experiment on HepG2 cells, 3.35 ± 0.16%.

`COc1ccc(NC(=O)c2ccc(-c3cc4c(cc3NC(=O)c3ccc(CCl)cc3)OCO4)cc2)cc1` [B5, 4-(Chloromethyl)-N-(6-(4-((4-methoxyphenyl)carbamoyl)phenyl)benzo[d][1,3]dioxol-5-yl)benzamide]: the results for the inhibition at 10 µM on PCSK9/LDLR PPI and in the experiment with HepG2 cells were 6.18 ± 0.08% and 7.22 ± 0.15%, respectively.

Consider `CCc1ccc(N2CCN(C(=O)c3ccc(-c4cc5c(cc4NC(=O)c4ccc(CCl)cc4)OCO5)cc3)CC2)cc1` [B15, 4-(Chloromethyl)-N-(6-(4-(4-(4-ethylphenyl)piperazine-1-carbonyl)phenyl)benzo[d][1,3]dioxol-5-yl)benzamide], for which the inhibition at 10 µM at PCSK9/LDLR PPI worked out at 7.22 ± 0.71%; in the experiment with HepG2 cells, 8.91 ± 0.62%.

With `CCN1CCN(C(=O)c2ccc(-c3cc4c(cc3NC(=O)c3ccc(CCl)cc3)OCO4)cc2)CC1` [B18, 4-(Chloromethyl)-N-(6-(4-(4-ethylpiperazine-1-carbonyl)phenyl)benzo[d][1,3]dioxol-5-yl)benzamide], the inhibition at 10 µM on PCSK9/LDLR PPI was determined as 5.66 ± 0.02%; in the experiment on HepG2 cells, 6.76 ± 0.26%.

Consider `O=C(Nc1ccc2c(c1)OCCO2)c1ccc(-c2cc3c(cc2NC(=O)c2ccc(CCl)cc2)OCO3)cc1` [B12, 4-(Chloromethyl)-N-(6-(4-((2,3-dihydrobenzo[b][1,4]dioxin-6-yl)carbamoyl)phenyl)benzo[d][1,3]dioxol-5-yl)benzamide], for which the values for the inhibition at 10 µM on PCSK9/LDLR PPI and with HepG2 cells were 5.16 ± 0.2% and 5.76 ± 0.24%, respectively.

Turning to `CCc1ccc(NC(=O)c2ccc(-c3cc4c(cc3NC(=O)c3ccc(CCl)cc3)OCO4)cc2)cc1` [B9, 4-(Chloromethyl)-N-(6-(4-((4-ethylphenyl)carbamoyl)phenyl)benzo[d][1,3]dioxol-5-yl)benzamide], the inhibition at 10 µM on PCSK9/LDLR PPI is 3.36 ± 0.23%; in the experiment with HepG2 cells, 6.36 ± 0.42%.

Consider `O=C(Nc1cc2c(cc1-c1ccc(C(=O)N3CCN(c4ccc(Cl)cc4)CC3)cc1)OCO2)c1ccc(CCl)cc1` [B16, 4-(Chloromethyl)-N-(6-(4-(4-(4-chlorophenyl)piperazine-1-carbonyl)phenyl)benzo[d][1,3]dioxol-5-yl)benzamide], for which the values for the inhibition at 10 µM at PCSK9/LDLR PPI and in the experiment with HepG2 cells were 7.94 ± 0.03% and 10.2 ± 0.91%, respectively.

For `CCOc1ccc(NC(=O)c2ccc(-c3cc4c(cc3NC(=O)c3ccc(CCl)cc3)OCO4)cc2)cc1` [B6, 4-(Chloromethyl)-N-(6-(4-((4-ethoxyphenyl)carbamoyl)phenyl)benzo[d][1,3]dioxol-5-yl)benzamide], the inhibition at 10 µM at PCSK9/LDLR PPI is 6.97 ± 0.43%; in the experiment with HepG2 cells it was 7.04 ± 0.27%.

In the case of `COc1cc(NC(=O)c2ccc(-c3cc4c(cc3NC(=O)c3cc(F)cc(F)c3)OCO4)cc2)cc(OC)c1OC` [A15, 3,5-Difluoro-N-(6-(4-((3,4,5-trimethoxyphenyl)carbamoyl)phenyl)benzo[d][1,3]dioxol-5-yl)benzamide], the inhibition at 10 µM amounted to 4.76 ± 0.37% on PCSK9/LDLR PPI and 4.63 ± 0.22% in the experiment on HepG2 cells.

Consider `COCc1ccc(C(=O)Nc2cc3c(cc2-c2ccc(C(=O)N4CCN(CCc5ccccc5)CC4)cc2)OCO3)cc1` [C5, 4-(Methoxymethyl)-N-(6-(4-(4-phenethylpiperazine-1-carbonyl)phenyl)benzo[d][1,3]dioxol-5-yl)benzamide], for which the inhibition at 10 µM was found to be 5.92 ± 0.32% at PCSK9/LDLR PPI and 5.63 ± 0.37% with HepG2 cells.

With `COCc1ccc(C(=O)Nc2cc3c(cc2-c2ccc(C(=O)N4CCN(c5ccc(OC)cc5)CC4)cc2)OCO3)cc1` [C3, 4-(Methoxymethyl)-N-(6-(4-(4-(4-methoxyphenyl)piperazine-1-carbonyl)phenyl)benzo[d][1,3]dioxol-5-yl)benzamide], the inhibition at 10 µM on PCSK9/LDLR PPI was 25.3 ± 2.11%; with HepG2 cells it was 6.62 ± 0.45%.

Consider `O=C(Nc1cc2c(cc1-c1ccc(C(=O)N3CCN(c4ccc(F)cc4)CC3)cc1)OCO2)c1ccc(CCl)cc1` [B17, 4-(Chloromethyl)-N-(6-(4-(4-(4-fluorophenyl)piperazine-1-carbonyl)phenyl)benzo[d][1,3]dioxol-5-yl)benzamide], for which the inhibition at 10 µM at PCSK9/LDLR PPI was 4.07 ± 0.25%; in the experiment on HepG2 cells, 16.4 ± 1.18%.

In the case of `COCc1ccc(C(=O)Nc2cc3c(cc2-c2ccc(C(=O)N4CCN(c5ccc(Cl)cc5)CC4)cc2)OCO3)cc1` [C8, N-(6-(4-(4-(4-chlorophenyl)piperazine-1-carbonyl)phenyl)benzo[d][1,3]dioxol-5-yl)-4-(methoxymethyl)benzamide], the inhibition at 10 µM was determined as 25.7 ± 1.2% at PCSK9/LDLR PPI and 14.5 ± 1.22% in the experiment on HepG2 cells.

As for `COc1cc(NC(=O)c2ccc(-c3cc4c(cc3NC(=O)c3ccc(C#N)cc3)OCO4)cc2)cc(OC)c1OC` [A17, 4-Cyano-N-(6-(4-((3,4,5-trimethoxyphenyl)carbamoyl)phenyl)benzo[d][1,3]dioxol-5-yl)benzamide], the inhibition at 10 µM at PCSK9/LDLR PPI is 7.91 ± 0.71%; with HepG2 cells, 3.84 ± 0.11%.

For `CCc1ccc(C(=O)Nc2cc3c(cc2-c2ccc(C(=O)Nc4cc(OC)c(OC)c(OC)c4)cc2)OCO3)cc1` [A14, 4-Ethyl-N-(6-(4-((3,4,5-trimethoxyphenyl)carbamoyl)phenyl)benzo[d][1,3]dioxol-5-yl)benzamide], the results for the inhibition at 10 µM at PCSK9/LDLR PPI and in the experiment with HepG2 cells were 7.83 ± 0.26% and 5.21 ± 0.16%, respectively.

Take `O=C(Nc1cccc(-c2nc3ccccc3o2)c1)c1ccc(NC(=O)c2cc3ccccc3o2)cc1` [SBC-115337, reference compound]: the IC50 at PCSK9/LDLR PPI (dose-dependent IC50 plot, Figure 3, read-out: PCSK9 IC50 (inhibition of PCSK9/LDLR PPI)) is 12.9 µM.

For the molecule `CC(C)NC(=O)c1ccc(-c2cc3c(cc2NC(=O)c2ccc(CCl)cc2)OCO3)cc1` [B20, 4-(Chloromethyl)-N-(6-(4-(isopropylcarbamoyl)phenyl)benzo[d][1,3]dioxol-5-yl)benzamide], the inhibition at 10 µM at PCSK9/LDLR PPI turned out to be 3.15 ± 0.13%; in the experiment on HepG2 cells, 9.55 ± 0.43%.

Take `COCc1ccc(C(=O)Nc2cc3c(cc2-c2ccc(C(=O)N4CCN(C(=O)OC(C)(C)C)CC4)cc2)OCO3)cc1` [C2, Tert-butyl4-(4-(6-(4-(methoxymethyl)benzamido)benzo[d][1,3]dioxol-5-yl)benzoyl)piperazine-1-carboxylate]: the inhibition at 10 µM on PCSK9/LDLR PPI was determined as 17.8 ± 1.24%; with HepG2 cells, 13.5 ± 1.13%.

Consider `COCc1ccc(C(=O)Nc2cc3c(cc2-c2ccc(C(=O)NC(C)C)cc2)OCO3)cc1` [C10, N-isopropyl-4-(6-(4-(methoxymethyl)benzamido)benzo[d][1,3]dioxol-5-yl)benzamide], for which the figures for the inhibition at 10 µM at PCSK9/LDLR PPI and with HepG2 cells were 5.48 ± 0.2% and 6.76 ± 0.18%, respectively.
